Active and inactive are the calls of the source. Rule as the data show it: actives have a measured IC50 and inactives only a lower limit.

For the assay, the target named is Envelope glycoprotein gp160 (Human immunodeficiency virus 1, UniProt Q6QLK5). The experiment in a line: inhibitors of HIV fusion peptide binding, primary screen, biochemical, uHTS, fluorescence dequenching (AID 1986).
Sequence of Envelope glycoprotein gp160 (Q6QLK5 whole entry, the tested form may be a part): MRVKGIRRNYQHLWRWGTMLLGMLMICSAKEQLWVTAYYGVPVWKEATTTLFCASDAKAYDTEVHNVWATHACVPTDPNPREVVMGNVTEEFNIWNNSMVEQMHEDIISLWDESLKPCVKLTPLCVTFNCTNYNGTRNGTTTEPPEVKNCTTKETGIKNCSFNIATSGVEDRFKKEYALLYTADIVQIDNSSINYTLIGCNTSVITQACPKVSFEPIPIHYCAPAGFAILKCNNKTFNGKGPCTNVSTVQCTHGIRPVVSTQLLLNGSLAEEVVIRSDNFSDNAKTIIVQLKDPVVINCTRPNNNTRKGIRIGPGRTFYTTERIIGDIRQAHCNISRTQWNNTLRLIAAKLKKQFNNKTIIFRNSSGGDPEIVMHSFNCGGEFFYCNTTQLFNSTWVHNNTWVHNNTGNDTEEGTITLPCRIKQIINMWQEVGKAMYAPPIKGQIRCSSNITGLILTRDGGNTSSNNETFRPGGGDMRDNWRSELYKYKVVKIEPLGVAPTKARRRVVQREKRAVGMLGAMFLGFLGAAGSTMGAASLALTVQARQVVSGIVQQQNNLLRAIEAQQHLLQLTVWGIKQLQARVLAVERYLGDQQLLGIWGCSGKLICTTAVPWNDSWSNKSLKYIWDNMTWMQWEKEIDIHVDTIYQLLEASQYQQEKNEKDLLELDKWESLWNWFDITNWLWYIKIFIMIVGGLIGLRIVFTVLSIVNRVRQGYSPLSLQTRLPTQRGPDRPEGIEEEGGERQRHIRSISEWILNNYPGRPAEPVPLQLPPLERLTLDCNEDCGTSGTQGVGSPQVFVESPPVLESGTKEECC
Regarding `NS(=O)(=O)c1cc(C(=O)NC2CCSc3ccccc32)ccc1Cl` (centres undefined), the 50% inhibitory concentration (IC50) (in general, the point on the concentration scale where inhibition reaches its midpoint) is 8.22 µM (active). The result for `O=C(O)CN1C(=O)/C(=C\c2cc(Br)ccc2OCc2ccc(Cl)cc2Cl)SC1=S` reads 13.1 µM (active). The result for `CCCCCC(=O)Cc1cc(O)cc2c1C(=O)Oc1cc(O)c(C(=O)O)c(CCCCC)c1O2` [PHYSODIC ACID] reads 4.1 µM (active); that for `CC(C)(C)c1ccc(OCC(=O)NNC(=S)NC(=O)c2ccccc2[N+](=O)[O-])c(Br)c1`, 28.7 µM (active).

Source of the values: ChEMBL document CHEMBL1201862, “PubChem BioAssay data set” (2004).
